Like-named read-outs stand apart in the source and are kept apart here.
Molecular target: BTK (Homo sapiens (Human), UniProt Q06187)
Assay: Btk in vitro inhibitory activity (one of Method A TR-FRET, Method B electrophoretic mobility shift, Method C radiometric filter binding)
Format: biochemical
[1] = determined using one of the methods of Example 355a, 355b and 355c, read-out: BTK IC50

Chain of BTK (Q06187 whole entry): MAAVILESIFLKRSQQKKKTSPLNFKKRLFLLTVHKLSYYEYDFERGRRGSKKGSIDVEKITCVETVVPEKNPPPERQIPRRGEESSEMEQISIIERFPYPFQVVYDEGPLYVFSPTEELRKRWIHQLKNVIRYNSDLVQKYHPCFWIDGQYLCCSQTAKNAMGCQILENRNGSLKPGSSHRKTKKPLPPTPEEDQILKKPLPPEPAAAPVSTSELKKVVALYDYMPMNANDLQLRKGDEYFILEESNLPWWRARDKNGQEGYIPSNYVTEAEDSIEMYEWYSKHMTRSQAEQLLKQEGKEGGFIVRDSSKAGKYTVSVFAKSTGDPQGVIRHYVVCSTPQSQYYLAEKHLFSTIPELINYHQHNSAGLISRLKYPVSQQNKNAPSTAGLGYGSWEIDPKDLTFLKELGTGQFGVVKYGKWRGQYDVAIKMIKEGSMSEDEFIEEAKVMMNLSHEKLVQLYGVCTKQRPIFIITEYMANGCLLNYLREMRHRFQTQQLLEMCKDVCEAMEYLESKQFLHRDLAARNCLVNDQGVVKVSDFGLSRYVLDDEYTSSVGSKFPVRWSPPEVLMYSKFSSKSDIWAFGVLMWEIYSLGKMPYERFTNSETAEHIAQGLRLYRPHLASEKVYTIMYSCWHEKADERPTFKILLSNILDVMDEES

Compound | IC50 [1] [nM] | IC50 (read-out: Btk (IC50)) [nM] | IC50 (Btk (IC50)) [nM] | IC50 [nM]
CN(C/C=C/C(=O)N1CCC[C@@H](N(C)c2cnc(C(N)=O)c(Nc3ccc(C(=O)N4CCOCC4)cc3)n2)C1)C1CC1 [Example 156, (R,E)-5-((1-(4-(cyclopropyl(methyl)amino)but-2-enoyl)piperidin-3-yl)(methyl)amino)-3-(4-(morpholine-4-carbonyl)phenylamino)pyrazine-2-carboxamide] | < 10 | < 10 | – | –
CC#CC(=O)N1CCC[C@@H](N(C)c2cnc(C(N)=O)c(Nc3ccc(C(=O)N4CCOCC4)cc3)n2)C1 [Example 157, (R)-5-((1-but-2-ynoylpiperidin-3-yl)(methyl)amino)-3-(4-(morpholine-4-carbonyl)phenylamino)pyrazine-2-carboxamide] | < 10 | < 10 | – | –
CN(C)C/C=C/C(=O)N1CCC[C@@H](N(C)c2cnc(C(N)=O)c(Nc3ccc(Oc4ccccc4)cc3)n2)C1 [Example 158, (R,E)-5-((1-(4-(dimethylamino)but-2-enoyl)piperidin-3-yl)(methyl)amino)-3-(4-phenoxyphenylamino)pyrazine-2-carboxamide] | < 10 | – | – | –
CCOc1ccc(C(=O)N[C@@H]2CCCN(c3nnc(C(N)=O)c(Nc4ccc(C#N)cc4)n3)C2)cc1 [Example 159, (R)-5-(4-cyanophenylamino)-3-(3-(4-ethoxybenzamido)piperidin-1-yl)-1,2,4-triazine-6-carboxamide] | 100 to 1000 | – | 100 to 1000 | –
COc1ccc(C(=O)N[C@@H]2CCCN(c3cnc(C(N)=O)c(Nc4ccc(N5CCS(=O)(=O)CC5)cc4)n3)C2)cc1 [Example 161, (R)-5-(3-(4-methoxybenzamido)piperidin-1-yl)-3-(4-(1,1-dioxothiomorpholino)phenylamino)pyrazine-2-carboxamide] | < 10 | < 10 | – | –
COc1ccc(C(=O)N[C@@H]2CCCN(c3cnc(C(N)=O)c(Nc4ccc(C5CCNCC5)c(F)c4)n3)C2)cc1 [Example 163, (R)-3-(3-fluoro-4-(piperidin-4-yl)phenylamino)-5-(3-(4-methoxybenzamido)piperidin-1-yl)pyrazine-2-carboxamide] | < 10 | < 10 | – | –
COc1ccc(C(=O)N[C@@H]2CCCN(c3cnc(C(N)=O)c(Nc4ccc(N5CCCCC5)cc4)n3)C2)cc1 [Example 164, (R)-5-(3-(4-methoxybenzamido)piperidin-1-yl)-3-(4-(piperidin-1-yl)phenylamino)pyrazine-2-carboxamide] | < 10 | – | – | –
CN1CCC(c2ccc(Nc3nc(N4CCC[C@@H](NC(=O)c5ccc(F)cc5)C4)cnc3C(N)=O)cc2)CC1 [Example 168, (R)-5-(3-(4-fluorobenzamido)piperidin-1-yl)-3-(4-(1-methylpiperidin-4-yl)phenylamino)pyrazine-2-carboxamide] | < 10 | < 10 | – | –
CCOc1ccc(C(=O)N[C@@H]2CCCN(c3cnc(C(N)=O)c(Nc4ccc(C5CCN(C)CC5)cc4)n3)C2)cc1 [Example 169, (R)-5-(3-(4-ethoxybenzamido)piperidin-1-yl)-3-(4-(1-methylpiperidin-4-yl)phenylamino)pyrazine-2-carboxamide] | < 10 | – | – | –
COc1cc(Nc2nc(N3CCC[C@@H](NC(=O)N(C)C)C3)cnc2C(N)=O)ccc1Cl [Example 182, (R)-3-(4-chloro-3-methoxyphenylamino)-5-(3-(3,3-dimethylureido)piperidin-1-yl)pyrazine-2-carboxamide] | 100 to 1000 | – | 100 to 1000 | –
COc1cc(Nc2nc(N3CCC[C@@H](NC(=O)N(C)C)C3)cnc2C(N)=O)ccc1C [Example 183, (R)-5-(3-(3,3-dimethylureido)piperidin-1-yl)-3-(3-methoxy-4-methylphenylamino)pyrazine-2-carboxamide] | 100 to 1000 | – | – | 100 to 1000
Cc1nc(Nc2nc(N3CCC[C@@H](NC(=O)N(C)C)C3)cnc2C(N)=O)ccc1F [Example 184, (R)-5-(3-(3,3-dimethylureido)piperidin-1-yl)-3-(5-fluoro-6-methylpyridin-2-ylamino)pyrazine-2-carboxamide] | 1000 to 10000 | – | – | 100 to 1000
CN(C)C(=O)N[C@@H]1CCCN(c2cnc(C(N)=O)c(Nc3ccn(C)c(=O)c3)n2)C1 [Example 185, (R)-5-(3-(3,3-dimethylureido)piperidin-1-yl)-3-(1-methyl-2-oxo-1,2-dihydropyridin-4-ylamino)pyrazine-2-carboxamide] | 100 to 1000 | – | 100 to 1000 | –

The next lines start with results.

IC50 [1] [nM] | IC50 (read-out: Btk (IC50)) [nM] | IC50 (Btk (IC50)) [nM] | Compound | IC50 [nM]
10 to 100 | – | – | COc1ccc(C(=O)N[C@@H]2CCCN(c3cnc(C(N)=O)c(Nc4ccc(C(C)C)cc4)n3)C2)cc1 [Example 160, (R)-3-(4-isopropylphenylamino)-5-(3-(4-methoxybenzamido)piperidin-1-yl)pyrazine-2-carboxamide] | –
< 10 | 10 to 100 | – | COc1ccc(C(=O)N[C@@H]2CCCN(c3cnc(C(N)=O)c(Nc4ccc(C5CCNCC5)cc4F)n3)C2)cc1 [Example 162, (R)-3-(2-fluoro-4-(piperidin-4-yl)phenylamino)-5-(3-(4-methoxybenzamido)piperidin-1-yl)pyrazine-2-carboxamide] | –
< 10 | – | – | CN1CCC(c2ccc(Nc3nc(N4CCC[C@@H](NC(=O)N(C)C)C4)cnc3C(N)=O)cc2)CC1 [Example 165] | –
< 10 | – | – | CCN(C)C(=O)N[C@@H]1CCCN(c2cnc(C(N)=O)c(Nc3ccc(C4CCN(C)CC4)cc3)n2)C1 [Example 166, (R)-5-(3-(3-ethyl-3-methylureido)piperidin-1-yl)-3-(4-(1-methylpiperidin-4-yl)phenylamino)pyrazine-2-carboxamide] | –
< 10 | < 10 | – | CCN(CC)C(=O)N[C@@H]1CCCN(c2cnc(C(N)=O)c(Nc3ccc(C4CCN(C)CC4)cc3)n2)C1 [Example 167, (R)-5-(3-(3,3-diethylureido)piperidin-1-yl)-3-(4-(1-methylpiperidin-4-yl)phenylamino)pyrazine-2-carboxamide] | –
< 10 | < 10 | – | CN(C)C(=O)N[C@@H]1CCCN(c2cnc(C(N)=O)c(Nc3ccc(C4CCN(C(=O)N(C)C)CC4)cc3)n2)C1 [Example 170, (R)-3-(4-(1-(dimethylcarbamoyl)piperidin-4-yl)phenylamino)-5-(3-(3,3-dimethylureido)piperidin-1-yl)pyrazine-2-carboxamide] | –
< 10 | < 10 | – | CN(C)C(=O)N[C@@H]1CCCN(c2cnc(C(N)=O)c(Nc3ccc(C4CCN(C(=O)C5CC5)CC4)cc3)n2)C1 [Example 171, (R)-3-(4-(1-(cyclopropanecarbonyl)piperidin-4-yl)phenylamino)-5-(3-(3,3-dimethylureido)piperidin-1-yl)pyrazine-2-carboxamide] | –
< 10 | < 10 | – | CN(C)C(=O)N[C@@H]1CCCN(c2cnc(C(N)=O)c(Nc3ccc(C4CCN(S(C)(=O)=O)CC4)cc3)n2)C1 [Example 172, (R)-5-(3-(3,3-dimethylureido)piperidin-1-yl)-3-(4-(1-(methylsulfonyl)piperidin-4-yl)phenylamino)pyrazine-2-carboxamide] | –
10 to 100 | – | 10 to 100 | CN(C)C(=O)N[C@@H]1CCCN(c2cnc(C(N)=O)c(Nc3ccc(C4CCN(S(=O)(=O)N(C)C)CC4)cc3)n2)C1 [Example 173, (R)-3-(4-(1-(N,N-dimethylsulfamoyl)piperidin-4-yl)phenylamino)-5-(3-(3,3-dimethylureido)piperidin-1-yl)pyrazine-2-carboxamide] | –
10 to 100 | 10 to 100 | – | CN(C)C(=O)N[C@@H]1CCCN(c2cnc(C(N)=O)c(Nc3ccc(C4CCN(c5ccccn5)CC4)cc3)n2)C1 [Example 174, (R)-5-(3-(3,3-dimethylureido)piperidin-1-yl)-3-(4-(1-(pyridin-2-yl)piperidin-4-yl)phenylamino)pyrazine-2-carboxamide] | –
< 10 | < 10 | – | CN(C)C(=O)N[C@@H]1CCCN(c2cnc(C(N)=O)c(Nc3ccc(C4CCN(C5CCC5)CC4)cc3)n2)C1 [Example 175, (R)-3-(4-(1-cyclobutylpiperidin-4-yl)phenylamino)-5-(3-(3,3-dimethylureido)piperidin-1-yl)pyrazine-2-carboxamide] | –
< 10 | < 10 | – | CN(C)C(=O)N[C@@H]1CCCN(c2cnc(C(N)=O)c(Nc3ccc(C4CCN(C5CCOCC5)CC4)cc3)n2)C1 [Example 176, (R)-5-(3-(3,3-dimethylureido)piperidin-1-yl)-3-(4-(1-(tetrahydro-2H-pyran-4-yl)piperidin-4-yl)phenylamino)pyrazine-2-carboxamide] | –
< 10 | < 10 | – | CN(C)C(=O)N[C@@H]1CCCN(c2cnc(C(N)=O)c(Nc3ccc(C4CCN(CCOCCO)CC4)cc3)n2)C1 [Example 177, (R)-5-(3-(3,3-dimethylureido)piperidin-1-yl)-3-(4-(1-(2-(2-hydroxyethoxy)ethyl)piperidin-4-yl)phenylamino)pyrazine-2-carboxamide] | –
10 to 100 | 10 to 100 | – | CN(C)C(=O)N[C@@H]1CCCN(c2cnc(C(N)=O)c(Nc3ccc(F)cc3)n2)C1 [Example 179, (R)-5-(3-(3,3-dimethylureido)piperidin-1-yl)-3-(4-fluorophenylamino)pyrazine-2-carboxamide] | –
100 to 1000 | – | – | CN(C)C(=O)N[C@@H]1CCCN(c2cnc(C(N)=O)c(Nc3ccccc3)n2)C1 [Example 180, (R)-5-(3-(3,3-dimethylureido)piperidin-1-yl)-3-(phenylamino)pyrazine-2-carboxamide] | –
10 to 100 | – | – | CN(C)C(=O)N[C@@H]1CCCN(c2cnc(C(N)=O)c(Nc3ccc(Cl)cc3)n2)C1 [Example 181, (R)-3-(4-chlorophenylamino)-5-(3-(3,3-dimethylureido)piperidin-1-yl)pyrazine-2-carboxamide] | –
10 to 100 | – | 10 to 100 | CN(C)C(=O)N[C@@H]1CCCN(c2cnc(C(N)=O)c(Nc3ccc(=O)n(C)c3)n2)C1 [Example 186, (R)-5-(3-(3,3-dimethylureido)piperidin-1-yl)-3-(1-methyl-6-oxo-1,6-dihydropyridin-3-ylamino)pyrazine-2-carboxamide] | –
10 to 100 | – | 10 to 100 | Cc1cc(Nc2nc(N3CCC[C@@H](NC(=O)N(C)C)C3)cnc2C(N)=O)sn1 [Example 187, (R)-5-(3-(3,3-dimethylureido)piperidin-1-yl)-3-(3-methylisothiazol-5-ylamino)pyrazine-2-carboxamide] | –

Source: patent US9656988B2 (Pharmacyclics LLC, priority 2013, dated 2017)
